What was measured:
3T3-L1 adipocytes = test: Lipid accumulation and differentiation of 3T3-L1 adipocytes (Oil Red-O staining); format: cell-based, mouse
Description: 3T3-L1 mouse preadipocytes are cultivated in DMEM (Dulbecco's modified eagle medium) with 10% foetal calf serum (FBS). PC12W cells are cultivated in DMEM with 5% FBS and 10% equine serum. In both cases the media contain 1% penicillin/streptomycin.
The differentiation of adipocytes is induced 2-3 days after cell confluence by adding a differentiating solution. This contains • 1 μmol/L of dexamethasone, • 0.5 mmol/L of 3-isobutyl-1-methylxanthine, • 1.67 μmol/L of insulin, and • 10% FBS.
Then the cells are stimulated for another 48 hours before finally being analysed (day 4).
Cells are washed with PBS and fixed with a 3.7% formaldehyde solution for 2 minutes. After fixing, the cells are stained for 1 hour at ambient temperature with a 0.5% stock solution of Oil Red-O in isopropanol diluted 3:2 with water. After washing, the cells are examined under a light microscope.

PPARgamma = target: T1, PPARgamma (Homo sapiens, UniProt P37231); test: Transcription reporter assay (PPRE-luciferase) in AT1-receptor-deficient PC12W cells; format: cell-based; settings: 10 μmol/L
T1 construct: expressed in transfected cells; host or cells: PC12W cells (AT1-receptor-deficient), transient transfection
T1 sequence (P37231 1-505): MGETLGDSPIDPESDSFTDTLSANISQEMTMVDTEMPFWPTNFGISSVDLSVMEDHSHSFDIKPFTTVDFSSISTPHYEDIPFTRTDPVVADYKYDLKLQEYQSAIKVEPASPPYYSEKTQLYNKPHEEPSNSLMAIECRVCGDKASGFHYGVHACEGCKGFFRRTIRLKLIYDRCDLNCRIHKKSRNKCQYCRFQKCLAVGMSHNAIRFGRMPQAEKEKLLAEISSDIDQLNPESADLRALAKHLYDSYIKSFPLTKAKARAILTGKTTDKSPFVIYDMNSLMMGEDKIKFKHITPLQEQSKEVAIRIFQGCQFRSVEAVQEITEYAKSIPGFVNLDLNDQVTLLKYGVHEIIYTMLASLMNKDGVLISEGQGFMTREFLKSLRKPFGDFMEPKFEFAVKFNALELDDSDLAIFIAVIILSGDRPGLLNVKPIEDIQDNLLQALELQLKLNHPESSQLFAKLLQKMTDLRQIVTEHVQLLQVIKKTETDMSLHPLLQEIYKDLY
T1 sequence (P19793 1-462 partner): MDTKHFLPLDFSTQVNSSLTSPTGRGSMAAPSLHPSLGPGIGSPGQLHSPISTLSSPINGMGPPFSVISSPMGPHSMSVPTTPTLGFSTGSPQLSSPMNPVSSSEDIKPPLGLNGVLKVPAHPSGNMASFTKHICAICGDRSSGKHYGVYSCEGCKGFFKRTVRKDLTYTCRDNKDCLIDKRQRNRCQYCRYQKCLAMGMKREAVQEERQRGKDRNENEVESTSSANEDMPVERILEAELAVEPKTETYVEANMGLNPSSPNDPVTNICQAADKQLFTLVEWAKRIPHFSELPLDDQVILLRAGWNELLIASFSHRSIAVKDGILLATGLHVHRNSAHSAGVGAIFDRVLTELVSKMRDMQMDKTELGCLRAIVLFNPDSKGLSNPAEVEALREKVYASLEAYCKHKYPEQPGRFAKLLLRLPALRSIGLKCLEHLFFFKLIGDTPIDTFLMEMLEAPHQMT
Experimental: 3T3-L1 adipocytes (day 4) or PC12W cells are transfected with Lipofectamine 2000 (Invitrogen) in the presence of 1 μg (for 3T3-L1 cells) or 50 ng (for PC12W cells) of a reporter construct, PPARgamma2 and RXRalpha expression vectors and 10 ng of a Renilla Luciferase Reporter control vector. The reporter construct is a fusion of 3xAcyl-CoA oxidase PPAR Response Element (PPRE) with Tk-luciferase. […] The Luciferase Reporter control vector is the plasmid pRL-CMV (Promega).
PC12W cells are AT1-receptor-deficient.

SMILES: CCCc1nc2c(C)cc(-c3nc4ccccc4n3C)cc2n1Cc1ccc(-c2ccccc2C(=O)O)cc1 [telmisartan]
- differentiation of 3T3-L1 adipocytes (3T3-L1 adipocytes): promoted
- accumulation of lipids (Oil Red-O staining) (3T3-L1 adipocytes; 10 μmol/L, day 4): increased accumulation of lipids
- regulation of the PPARgamma activity (PPARgamma; PC12W cells in the absence of exogenous PPARgamma2/RXRalpha): no regulation
- induction of PPARgamma activity, factor (PPARgamma; PC12W cells overexpressing PPARgamma2/RXRalpha): 1.9±0.4

Source: US20050070594A1, “Use of angiotensin II receptor antagonists” (Boehringer Ingelheim International GmbH, priority 2003, published 2005)
